Results: patent publication US20080004266A1, “Method for treating proliferative disorders associated with protooncogene products” (priority 2006, published 2008)
Several values for one entry are separate records, joined by “and”; a condition that tells them apart may be missing. Equal entries are not always repeated.

Assays:
[1] = test system: human malignant melanoma tumor cell line A-375; test: A-375 (B-raf V600E) nude mouse xenograft model; format: in vivo, human (xenograft in nude mouse); details: 50 mg/kg i.v. 3 times per week
Description: The human malignant melanoma cell line, A-375 (ATCC #CRL-1619), was obtained from the American Type Culture Collection (ATCC; Manassas, Va., USA). Growth of this tumor cell line is dependent upon the expression of an activated form of the B-RAF serine/threonine kinase carrying a V600E mutation (K. P. Hoeflich et al., Cancer Res. 66:999-1006, 2006; D. J. Panka et al., Cancer Res. 66:1611-1619, 2006). This is the most frequent genetic abnormality observed in melanoma (N. Dhomen and R. Marais, Curr. Opin. Genet. Dev. 17:31-39, 2007). The cells were cultured in growth media prepared with Dulbecco's Modified Eagle Medium (high glucose), 10% fetal bovine serum (FBS), 1% 100× Penicillin-Streptomycin, 1% 10× sodium pyruvate and 1% 10×MEM non-essential amino acids. FBS was obtained from ATCC and all other reagents were obtained from Invitrogen Corp. (Carlsbad, Calif., USA). […] The supernatant was aspirated and the cell pellet was resuspended in 10 mL of growth media and the cell number determined using a hemocytometer. […]
Tumors were then permitted to develop in vivo until the majority reached 90-160 mm^3 in tumor volume, which required 5-6 weeks following implantation. […] Tumor volumes (V) were calculated by caliper measurement of the width (W), length (L) and thickness (T) of tumors using the following formula: V=0.5236×(L×W×T). […]

[2] = test system: V600E mutant B-raf; test: Degradation of B-raf in A375 melanoma cells (Western blot); format: cell-based, human; details: 18 hours, at 0.5 mM and 0.1 mM (so in the source)
Protocol: […] After 18 hours, the cells were lysed with 1× lysis buffer and a western blot was perform, and B-raf was detected with anti-B-raf antibody.

**Q.** How did the “average bodyweight gain relative to the start of the study” value ([1]; day 60) turn out when `CC(C)c1cc(-c2nnc(O)n2-c2ccc3c(ccn3C)c2)c(O)cc1O` [Compound 226, 3-(2,4-di-hydroxy-5-isopropyl-phenyl)-4-(1-methyl-indol-5-yl)-5-hydroxy-[1,2,4] triazole] was run?
**A.** The value was 2.7% (+/−1.1 SEM) and 2.7% (+/1.1 SEM).

**Q.** What about the “% T/C value” ([1]; nude mice, 8 doses, day 63) of the same compound?
**A.** Its value is 17%.

**Q.** And the “degradation of V600E mutant B-raf” value [2]?
**A.** Its value is “induced degradation”.
